Patent US20140050779A1, “[…]-2 INHIBITORS AND USES THEREOF” (SINGAPORE HEALTH SERVICES PTE. LTD., priority 2011, published 2014)
“Also recorded” adds a separate entry of the source.

Legend:
[1] = test system: mouse eyes treated with −15D spectacle lens; assay: spectacle lens-induced myopia in mice, axial length and refractive error; assay type: in vivo; details: lens with 0.1% drug; for axial length: vs lens treated eyes; for refractive error: infrared photorefractor
Protocol: Topical applications were administered to both eyes at the same time each day (approximately 9:00 AM) commencing on the 12th day (initiation of spectacle lens treatment). A compatible drug level was determined prior to the in vivo use in a tissue culture study with mouse scleral fibroblasts. […] This treatment schedule continued for four weeks starting on post-natal day 12 continued until post-natal day 42. All measurements were taken at post-natal day 42, the equivalent of 4 weeks of spectacle lens wear.
Each eye was refracted every week to measure the refractive error using automated infrared photorefraction as described in Barathi, V. A., Beuerman, R. W., Schaeffel, F., 2009a, “Effects of unilateral topical atropine on binocular pupil responses and eye growth in mice”, Vision Res 49, 383-387. By using Optical Low Coherence Interferometry (OLCI, AC Master, Carl-Zeiss), the axial length of the eye was measured in-vivo as described in Yin G C, Gentle A, McBrien N A, “Muscarinic antagonist control of myopia: a molecular search for the M1 receptor in chick”, Mol. Vis. 2004; 13(10):787-93 and Barathi, V. A., Boopathi, V. G., Yap, E. P., Beuerman, R. W., 2008, “Two models of experimental myopia in the mouse”, Vision Res 48, 904-916. […] Differences of refractive power and axial length between eyes were calculated. Independent t-tests were used to compare experimental and control eyes in wild type and TGM2-deleted or M1-M5 mutant mice.
Right eyes were experimental and left eyes served as contra-lateral control. In vivo axial length was measured at 2 weeks and 4 weeks after treatment. […] Automated infrared photorefractor was used to measure the refractive error measurements.

TG-5 = assay: Western blot of TG proteins in mouse scleral fibroblasts after muscarinic agents; assay type: cell-based; details: 0.01-10 μM for 5 days
TG-3 = assay: Western blot of TG proteins in human scleral fibroblasts after muscarinic agents; assay type: cell-based; details: 0.01-10 μM for 5 days
[2] = test system: TGase 2 (TGM-2) transcript; assay: qPCR of TGases mRNA in mouse scleral fibroblasts after muscarinic agents; assay type: cell-based; details: 0.01-10 μM for 5 days, qPCR normalized to GAPDH
Protocol: P2 cultured mouse scleral fibroblasts were treated with atropine or carbachol at different concentrations of 0.01 μM, 0.1 μM, […], 5 μM and 10 μM for 5 days. Following 5 days of treatment, the total RNA was extracted from these cells and TGases transcript level was quantified via qPCR analysis. Height of bars show the means of three independent samples and error bars represent standard deviation. Values are normalized against GAPDH house keeping genes.
Murine scleral derived fibroblasts were cultured to passage 2 and treated to exogenous atropine or carbachol at 0.01 μM, 0.1 μM, 1 μM, 5 μM and 10 μM for 5 days. Following 5 days of treatment, the total RNA was extracted from these cells and RT-qPCR performed to determine transcript levels of TGM-2. The levels were normalized to GAPDH internal control. […] Height of bars or symbols represents mean and error bars SD. *: p<0.05 and **: p<0.001.
All cells used in examples described herein were between passages 2-4. Passaged cells were plated at a concentration of 2×10^5/mL into 6 well plates containing DMEM with 10% FBS. The cells were seen to attach to the bottom of the culture wells after 4 hours. […] The supernatant was poured into a new eppendorf tube and cell concentrations were determined using the Dc Protein assay Kit (Bio-Rad, MA). […] Cell lysate was collected for relative quantitative (q) PCR and protein analysis at day 5. […]

C[C@@H]1OC(=O)[C@H]2C[C@H]3CCCC[C@@H]3[C@@H](/C=C/[C@H]3CCC[C@H](C)N3C)[C@@H]12 [himbacine]
reduction in the mouse myopia progression, among all the drugs ([1]; 2 weeks and 4 weeks): most significant amount of reduction
axial length ([1]; 2 weeks and 4 weeks): significantly reduced
refractive error [1]: shifted from myopic to hyperoic

CN1[C@@H]2CC[C@H]1C[C@@H](OC(=O)C(CO)c1ccccc1)C2 (some centres unmarked) [atropine]
axial length ([1]; 2 weeks and 4 weeks): significantly reduced
refractive error [1]: shifted from myopic to hyperoic
TG-5 protein level (TG-5): reduced
TG-3 protein level (TG-3): increased
TGase 2 (TGM-2) transcript level [2]: reduction; also recorded: down regulated
